Results taken from US4980377A, “1-(aminophenyl)-2-aminopropanone derivatives” (Laboratoire L. Lafon, priority 1984, dated 1990).
“Also recorded” adds a separate entry of the source.

What was measured:
[1] = system: mice; experiment: Overall behavior and reactivities in mice; type: in vivo, mouse; conditions: i.p.
Experimental: (§1) In the neuropsychopharmacological study which follows, a solution of CRL 41 153 in distilled water (pH 1.5) was administered intraperitoneally in a volume of 20 ml/kg to male mice and 5 ml/kg to male rats.
(§2) Groups of three animals are observed before and then 0.25 hour, 0.50 hour, 1 hour, 2 hours, 3 hours and 24 hours after the administration of CRL 41 153.

[2] = system: mice; experiment: Four plate test, traction and electric shock; type: in vivo, mouse; conditions: i.p.
Experimental: The test is performed on groups of 10 mice 30 minutes after the administration of CRL 41 153.

[3] = system: mice; experiment: Interaction with apomorphine in mice; type: in vivo, mouse; conditions: i.p.
Experimental: Groups of 6 mice receive CRL 41 153 0.5 hour before the subcutaneous injection of 1 or 16 mg/kg of apomorphine.

[4] = system: gravid White New Zealand female rabbits; experiment: Teratogenicity in gravid White New Zealand rabbits; type: in vivo, rabbit; conditions: dose 0 mg/kg [sic]
In short: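 Fetuses harvested by cesarean on gestation day 29 were scored for number and for any malformation (limb blockade, anury, tail or skull defects, exencephaly).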

[5] = system: rats; experiment: Interaction with apomorphine in rats; type: in vivo, rat; conditions: i.p.
Experimental: CRL 41 153 is administered to groups of 6 rats 0.5 hour before the subcutaneous injection of 0.5 mg/kg of apomorphine.

[6] = system: mice; experiment: Interaction with oxotremorine; type: in vivo, mouse; conditions: i.p.
Experimental: CRL 41 153 is administered to groups of 6 mice 0.5 hour before the intraperitoneal injection of 0.5 mg/kg of oxotremorine.

[7] = system: CNS; experiment: Neuropsychopharmacological profile as a whole; type: in vivo, mice and rats
Experimental: as §1

[8] = system: rats; experiment: Overall behavior and reactivities in rats; type: in vivo, rat; conditions: i.p.
Experimental: as §1, §2

[9] = system: mice; experiment: Behavioral despair; type: in vivo, mouse; conditions: forcibly immersed mice, i.p.
Description: Half an hour after they have received CRL 41 153, groups of 6 mice are placed in a beaker filled with water to a height of 6 cm. The total period of immobility between the 2nd and 6th minutes following immersion is noted.

[10] = system: male mice; experiment: Acute toxicity by intraperitoneal administration; type: in vivo, mouse; conditions: i.p.
Experimental: as §1

[11] = system: rats; experiment: Investigation of stereotype movements; type: in vivo, rat; conditions: i.p., compared with amphetamine 2 mg/kg
Experimental: Immediately after the intraperitoneal administration of CRL 41 194 or amphetamine, groups of 6 rats are placed in Plexiglass boxes (20×10×10 cm). The stereotype movements are graded from 0 to 3 every 10 minutes until they wear off.
Groups of 6 rats receive an intraperitoneal injection of CRL 41 213, distilled water or amphetamine immediately before being placed in small cages, where their stereotype behavior is graded every 10 minutes until the effect wears off.

[12] = system: rats; experiment: Interaction with amphetamine; type: in vivo, rat; conditions: i.p.
Experimental: Amphetamine (2 mg/kg) is injected intraperitoneally into groups of 6 rats 30 minutes after the administration of CRL 41 153. […] 4 mg/kg and 16 mg/kg, CRL 41 153 potentiates the intensity and duration of the stereotypies induced by amphetamine.

[13] = system: mice; experiment: Motility reduced by hypoxic aggression; type: in vivo, mouse; conditions: i.p.
Experimental: Half an hour after they have received CRL 41 153, the mice (10 per dose, 20 control animals) are subjected to acute hypobaric anoxia [pressure reduction of 600 mm Hg (i.e. about 8×10^4 Pa) in 90 seconds; release of vacuum in 45 seconds] and are then placed in an actimeter, where their motility is recorded for 10 minutes.

[14] = system: mice; experiment: Asphyxiant anoxia (gallamine triiodoethylate); type: in vivo, mouse; conditions: i.p., curarizing agent
Experimental: Groups of 10 mice receive CRL 41 153 half an hour before the intraperitoneal administration of 32 mg/kg of gallamine triiodoethylate (reference curarizing agent).

[15] = system: mice; experiment: Interaction with reserpine; type: in vivo, mouse; conditions: i.p.
Experimental: Four hours after the intraperitoneal injection of 2.5 mg/kg of reserpine, groups of 6 mice receive CRL 41 153.

[16] = system: mice; experiment: Motility reduced by habituation to the enclosure; type: in vivo, mouse; conditions: i.p.
Experimental: After they have stayed In the actimeters for 18 hours, (he mice (6 per dose, 12 control animals) receive CRL 41 153. They are immediately returned to their respective enclosures and, half an hour later, their motility is recorded for 30 minutes.

[17] = system: mice; experiment: Interaction with barbital; type: in vivo, mouse; conditions: i.p., barbital 220 mg/kg
Experimental: Half an hour after the administration of CRL 41 153, groups of 10 mice receive an intraperitoneal injection of barbital (220 mg/kg).

[18] = system: mice; experiment: Intergroup aggressiveness; type: in vivo, mouse; conditions: i.p.
Experimental: After they have stayed for 3 weeks in the two halves of a cage divided by an opaque partition, groups of 3 mice receive CRL 41 153. Half an hour later, the two groups from the same cage are brought together by removal of the partition, and the number of fights which occur in 10 minutes is noted.

[19] = pH of solutions in distilled water; type: physicochemical
Experimental: The neuropsychopharmacological study was undertaken according to the procedures described above for CRL 41 153, CRL 41 213 being adminstered intraperitoneally, in solution in distilled water, in a volume of 20 ml/kg to male mice and a volume of 5 ml/kg to male rats, and the pH of the injected solution varying with the concentration of CRL 41 213 according to the data given in Table II below.

[20] = system: mice; experiment: Spontaneous motility; type: in vivo, mouse; conditions: i.p.
Experimental: 0.5 hour after they have received CRL 41 153, the mice (6 per dose, 12 control animals) are placed in an actimeter, where their motility is recorded for 30 minutes.

SMILES: CCCNC(C)C(=O)c1ccc(N)cc1 (centres unmarked) [CRL 41 213]
- Observed symptoms ([1]; 1 mg/kg): moderate sedation 0.5 hour after administration
- Observed symptoms ([1]; 4 mg/kg): moderate excitation 0.5 hour after administration; also recorded: piloerection for 0.25 hour
- Observed symptoms ([1]; 16 mg/kg): excitation for more than 3 hours with the presence of stereotypies for about 2 hours as from the 1st hour following administration; also recorded: an increase in the fear reaction, the reactivity to touch and the aggressiveness for more than 3 hour; also recorded: salivation, lacrimation and exophthalmos for 1 hour; also recorded: polypnea
- Observed symptoms ([1]; 64 mg/kg): clonic convulsions for 0.5 hour; also recorded: excitation for more than 3 hours with the presence of stereotypies; also recorded: an increase in the fear reaction and the reactivity to touch from 2 hours to more than 3 hours; also recorded: mydriasis for more than 3 hours; also recorded: polypnea
- Effect on convulsant effects of electric shock [2]: opposes the convulsant effects of electric shock 116 to 64 mg/kg)
- Motor incapacity (traction) [2]: causes motor incapacity (64 mg/kg)
- Number of punished passes in the four plate test [2]: At doses of 1 mg/kg, 4 mg/kg and 16 mg/kg, CRL 41 213 causes an increase in the number of punished passes; also recorded: This increase is not present at the strongest dose used (64 mg/kg)
- Effect on hypothermia induced by apomorphine [3]: at doses of 1 mg/kg, 4 mg/kg, 16 mg/kg and 64 mg/kg, CRL 41 213 strongly opposes the hypothermia induced by apomorphine in mice
- Effect on righting behavior and stereotypies induced by apomorphine [3]: At the strongest dose studied (64 mg/kg), CRL 41 213 moderately reduces the righting behavior without modifying the stereotypies induced by apomorphine
- Affected foetuses, number [4]: 1
- Total foetuses (live) [4]: 84
- Affected foetuses, % ([4]; normal limit 1.5%): 1.19%
- Effect on stereotypies induced by apomorphine [5]: as from a dose of 2 mg/kg, CRL 41 213 causes an increase in the index of the stereotypes induced by apomorphine; also recorded: This increase is large in terms of intensity and duration at doses of 8 mg/kg and 32 mg/kg
- Effect on hypothermic action of oxotremorine [6]: As from a dose of 4 mg/kg, CRL 41 213 opposes the hypothermic action of oxotremorine; also recorded: At the weakest dose studied (1 mg/kg), this effect is scarcely detectable
- Effect on trembling induced by oxotremorine [6]: At the strongest doses (16 and 64 mg/kg), CRL 41 213 reduces the intensity of the trembling
- Action on the peripheral cholinergic symptoms ([6]; oxotremorine): does not change the signs of peripheral cholinergic stimulation produced by oxotremorine
- Anticonvulsant effects (overall) ([7]; conclusion of the tests): at high but non-toxic doses, CRL 41 213 causes the appearance of clonic convulsions but opposes the convulsant effects of electric shock
- Antidepressant effects (overall) ([7]; conclusion of the tests): possessing antidepressant, stimulant and arousing properties
- Stimulant effects (overall) ([7]; conclusion of the tests): possessing antidepressant, stimulant and arousing properties
- α-adrenergic stimulant effects (overall) ([7]; conclusion of the tests): effects reflecting peripheral α-adrenergic stimulation
- Peripheral α-adrenergic signs (mydriasis, salivation, lacrimation, exophthalmos) ([7]; species and dose not stated): mydriasis; also recorded: presence of salivation, lacrimation and exophthalmos
- Observed symptoms ([8]; 0.5 mg/kg): mydriasis for 1 hour
- Observed symptoms ([8]; 2 mg/kg): excitation with the presence of stereotypies; also recorded: an increase in the fear reaction and in the reactivity to touch and noise for 2 hours
- Observed symptoms ([8]; 8 mg/kg): excitation with the presence of stereotypies; also recorded: an increase in the fear reaction and in the reactivity to touch and noise for 3 hours; also recorded: mydriasis for more than 3 hours
- Observed symptoms ([8]; 32 mg/kg): excitation with the presence of very intense stereotypies; also recorded: an increase in the fear reaction and in the reactivity to touch and noise for 3 hours; also recorded: exophthalmos from 0.5 hour to 3 hours; also recorded: mydriasis for 3 hours; also recorded: polypnea
- Period of immobility due to despair [9]: as from a dose of 0.5 mg/kg, CRL 41 213 distinctly reduces the period of immobility; also recorded: Total antagonism is obtained at doses of 4 mg/kg, 16 mg/kg and 64 mg/kg
- LD0 (maximum non-lethal dose) [10]: greater than or equal to 128 mg/kg
- LD100 [10]: less than or equal to 256 mg/kg
- Stereotype movements [11]: As from a dose of 2 mg/kg, CRL 41 213 causes the appearance of stereotype movements in rats, the intensity of which is substantially comparable to that obtained with 2 mg/kg of amphetamine; also recorded: Increasing the doses leads to an increase in the intensity and duration of these stereotypies
- Effect on stereotypies induced by amphetamine [12]: as from a dose of 2 mg/kg, CRL 41 213 potentiates the stereotypies induced by amphetamine
- Motor recovery of mice after hypobaric hypoxia [13]: As from 1 mg/kg, CRL 41 213 causes a distinct improvement in the motor recovery
- Time taken for convulsions to occur [14]: does not modify (he time taken for convulsions to occur
- Time taken for death to occur [14]: at a dose of 64 mg/kg, it moderately increases the time taken for death to occur
- Effect on hypothermia induced by reserpine [15]: at doses of 1 mg/kg and 4 mg/kg, CRL 41 213 opposes the hypothermic action of reserpine; also recorded: at a weaker dose (0.25 mg/kg), no effect is detected
- Effect on ptosis induced by reserpine [15]: at doses of 1 mg/kg and 4 mg/kg, CRL 41 213 opposes the hypothermic action of reserpine as well as the ptosis induced by reserpine; also recorded: at a weaker dose (0.25 mg/kg), no effect is detected
- Motor activity of mice accustomed to their enclosure [16]: at doses of 4 mg/kg, 16 mg/kg and 64 mg/kg, CRL 41 213 causes a resumption in the motor activity of mice accustomed to their enclosure
- Duration of the sleep induced by barbital [17]: as from a dose of 0.5 mg/kg. CRL 41 213 reduces the duration of the sleep induced by barbital; also recorded: Total antagonism is obtained for doses equal to or greater than 4 mg/kg
- Number of fights / intergroup aggressiveness [18]: does not modify the intergroup aggressiveness of mice
- pH ([19]; 0.2 g/liter in distilled water): 4.0
- pH ([19]; 0.4 g/liter in distilled water): 3.5
- pH ([19]; 0.8 g/liter in distilled water): 3.0
- pH ([19]; 1.6 g/liter in distilled water): 2.5
- pH ([19]; 3.2 g/liter in distilled water): 2.0
- pH ([19]; 25 g/liter in distilled water): 1.5
- pH ([19]; 50 g/liter in distilled water): 1.0
- pH ([19]; ≤0.1 g/liter in distilled water): 5.0
- Spontaneous motor activity [20]: At doses of 1 mg/kg, 4 mg/kg and 16 mg/kg, CRL 41 213 causes a substantial increase in the spontaneous motor activity of mice; also recorded: At the strongest dose studied (64 mg/kg), CRL 41 213 causes clonic convulsions and stereotypies
